Measurements from the CheMixHub ionic liquid set.
± gives the uncertainty stated by the source.

Experiment: xn = mol fraction of the nth substance listed
Details: 101 kPa

CCCCCCCCCCCC[N+](C)(C)Cc1ccccc1.[Cl-] + NCC(=O)O + O
electrical conductivity (293.15 K, x2 = 0.0008873, x1 = 0.0002851): 0.0824 ± 0.0052 S/m
electrical conductivity (293.15 K, x2 = 0.0008873, x1 = 0.0003053): 0.0856 ± 0.0054 S/m
electrical conductivity (293.15 K, x2 = 0.0008873, x1 = 0.0003201): 0.0879 ± 0.0056 S/m
electrical conductivity (293.15 K, x2 = 0.0008874, x1 = 0.0001939): 0.0676 ± 0.0043 S/m
electrical conductivity (293.15 K, x2 = 0.0008874, x1 = 0.0002197): 0.072 ± 0.0045 S/m
electrical conductivity (293.15 K, x2 = 0.0008874, x1 = 0.0002434): 0.0759 ± 0.0046 S/m
electrical conductivity (293.15 K, x2 = 0.0008874, x1 = 0.0002654): 0.0793 ± 0.005 S/m
electrical conductivity (293.15 K, x2 = 0.0008875, x1 = 5.836e-05): 0.0233 ± 0.0015 S/m
electrical conductivity (293.15 K, x2 = 0.0008875, x1 = 8.059e-05): 0.0317 ± 0.002 S/m
electrical conductivity (293.15 K, x2 = 0.0008875, x1 = 0.0001014): 0.0394 ± 0.0025 S/m
electrical conductivity (293.15 K, x2 = 0.0008875, x1 = 0.0001212): 0.0469 ± 0.003 S/m
electrical conductivity (293.15 K, x2 = 0.0008875, x1 = 0.0001444): 0.0552 ± 0.0035 S/m
electrical conductivity (293.15 K, x2 = 0.0008875, x1 = 0.0001686): 0.0624 ± 0.0039 S/m
electrical conductivity (293.15 K, x2 = 0.001759, x1 = 5.744e-05): 0.0233 ± 0.0015 S/m
electrical conductivity (293.15 K, x2 = 0.001759, x1 = 7.9e-05): 0.0314 ± 0.002 S/m
electrical conductivity (293.15 K, x2 = 0.001759, x1 = 9.947e-05): 0.0391 ± 0.0025 S/m
electrical conductivity (293.15 K, x2 = 0.001759, x1 = 0.0001207): 0.0469 ± 0.003 S/m
electrical conductivity (293.15 K, x2 = 0.001759, x1 = 0.0001453): 0.0558 ± 0.0035 S/m
electrical conductivity (293.15 K, x2 = 0.001759, x1 = 0.0001712): 0.0628 ± 0.004 S/m
electrical conductivity (293.15 K, x2 = 0.001759, x1 = 0.0001971): 0.0678 ± 0.0043 S/m
electrical conductivity (293.15 K, x2 = 0.001759, x1 = 0.0002216): 0.072 ± 0.0046 S/m
electrical conductivity (293.15 K, x2 = 0.001759, x1 = 0.0002442): 0.0758 ± 0.0046 S/m
electrical conductivity (293.15 K, x2 = 0.001759, x1 = 0.000265): 0.079 ± 0.005 S/m
electrical conductivity (293.15 K, x2 = 0.001759, x1 = 0.000284): 0.0821 ± 0.0052 S/m
electrical conductivity (293.15 K, x2 = 0.001759, x1 = 0.0003018): 0.0849 ± 0.0054 S/m
electrical conductivity (293.15 K, x2 = 0.001759, x1 = 0.0003141): 0.087 ± 0.0055 S/m
electrical conductivity (298.15 K, x2 = 0.0008873, x1 = 0.0002851): 0.0924 ± 0.0058 S/m
electrical conductivity (298.15 K, x2 = 0.0008873, x1 = 0.0003053): 0.0961 ± 0.006 S/m
electrical conductivity (298.15 K, x2 = 0.0008873, x1 = 0.0003201): 0.0988 ± 0.0062 S/m
electrical conductivity (298.15 K, x2 = 0.0008874, x1 = 0.0001939): 0.0753 ± 0.0047 S/m
electrical conductivity (298.15 K, x2 = 0.0008874, x1 = 0.0002197): 0.0803 ± 0.005 S/m
electrical conductivity (298.15 K, x2 = 0.0008874, x1 = 0.0002434): 0.0848 ± 0.0052 S/m
electrical conductivity (298.15 K, x2 = 0.0008874, x1 = 0.0002654): 0.0888 ± 0.0056 S/m
electrical conductivity (298.15 K, x2 = 0.0008875, x1 = 5.836e-05): 0.0261 ± 0.0016 S/m
electrical conductivity (298.15 K, x2 = 0.0008875, x1 = 8.059e-05): 0.0355 ± 0.0022 S/m
electrical conductivity (298.15 K, x2 = 0.0008875, x1 = 0.0001014): 0.0441 ± 0.0028 S/m
electrical conductivity (298.15 K, x2 = 0.0008875, x1 = 0.0001212): 0.0524 ± 0.0033 S/m
electrical conductivity (298.15 K, x2 = 0.0008875, x1 = 0.0001444): 0.0617 ± 0.0039 S/m
electrical conductivity (298.15 K, x2 = 0.0008875, x1 = 0.0001686): 0.0695 ± 0.0043 S/m
electrical conductivity (298.15 K, x2 = 0.001759, x1 = 5.744e-05): 0.026 ± 0.0016 S/m
electrical conductivity (298.15 K, x2 = 0.001759, x1 = 7.9e-05): 0.0351 ± 0.0022 S/m
electrical conductivity (298.15 K, x2 = 0.001759, x1 = 9.947e-05): 0.0437 ± 0.0028 S/m
electrical conductivity (298.15 K, x2 = 0.001759, x1 = 0.0001207): 0.0525 ± 0.0033 S/m
electrical conductivity (298.15 K, x2 = 0.001759, x1 = 0.0001453): 0.0624 ± 0.0039 S/m
electrical conductivity (298.15 K, x2 = 0.001759, x1 = 0.0001712): 0.0701 ± 0.0044 S/m
electrical conductivity (298.15 K, x2 = 0.001759, x1 = 0.0001971): 0.0758 ± 0.0047 S/m
electrical conductivity (298.15 K, x2 = 0.001759, x1 = 0.0002216): 0.0806 ± 0.005 S/m
electrical conductivity (298.15 K, x2 = 0.001759, x1 = 0.0002442): 0.0849 ± 0.0052 S/m
electrical conductivity (298.15 K, x2 = 0.001759, x1 = 0.000265): 0.0888 ± 0.0055 S/m
electrical conductivity (298.15 K, x2 = 0.001759, x1 = 0.000284): 0.0923 ± 0.0058 S/m
electrical conductivity (298.15 K, x2 = 0.001759, x1 = 0.0003018): 0.0956 ± 0.006 S/m
electrical conductivity (298.15 K, x2 = 0.001759, x1 = 0.0003141): 0.098 ± 0.0061 S/m
electrical conductivity (303.15 K, x2 = 0.0008873, x1 = 0.0002851): 0.103 ± 0.0064 S/m
electrical conductivity (303.15 K, x2 = 0.0008873, x1 = 0.0003053): 0.107 ± 0.0066 S/m
electrical conductivity (303.15 K, x2 = 0.0008873, x1 = 0.0003201): 0.11 ± 0.0068 S/m
electrical conductivity (303.15 K, x2 = 0.0008874, x1 = 0.0001939): 0.0835 ± 0.0052 S/m
electrical conductivity (303.15 K, x2 = 0.0008874, x1 = 0.0002197): 0.0893 ± 0.0055 S/m
electrical conductivity (303.15 K, x2 = 0.0008874, x1 = 0.0002434): 0.0944 ± 0.0058 S/m
electrical conductivity (303.15 K, x2 = 0.0008874, x1 = 0.0002654): 0.099 ± 0.0061 S/m
electrical conductivity (303.15 K, x2 = 0.0008875, x1 = 5.836e-05): 0.0289 ± 0.0018 S/m
electrical conductivity (303.15 K, x2 = 0.0008875, x1 = 8.059e-05): 0.0393 ± 0.0025 S/m
electrical conductivity (303.15 K, x2 = 0.0008875, x1 = 0.0001014): 0.0489 ± 0.003 S/m
electrical conductivity (303.15 K, x2 = 0.0008875, x1 = 0.0001212): 0.0581 ± 0.0036 S/m
electrical conductivity (303.15 K, x2 = 0.0008875, x1 = 0.0001444): 0.0682 ± 0.0042 S/m
electrical conductivity (303.15 K, x2 = 0.0008875, x1 = 0.0001686): 0.077 ± 0.0048 S/m
electrical conductivity (303.15 K, x2 = 0.001759, x1 = 5.744e-05): 0.0289 ± 0.0018 S/m
electrical conductivity (303.15 K, x2 = 0.001759, x1 = 7.9e-05): 0.039 ± 0.0025 S/m
electrical conductivity (303.15 K, x2 = 0.001759, x1 = 9.947e-05): 0.0485 ± 0.0031 S/m
electrical conductivity (303.15 K, x2 = 0.001759, x1 = 0.0001207): 0.0582 ± 0.0037 S/m
electrical conductivity (303.15 K, x2 = 0.001759, x1 = 0.0001453): 0.069 ± 0.0043 S/m
electrical conductivity (303.15 K, x2 = 0.001759, x1 = 0.0001712): 0.0775 ± 0.0048 S/m
electrical conductivity (303.15 K, x2 = 0.001759, x1 = 0.0001971): 0.0841 ± 0.0052 S/m
electrical conductivity (303.15 K, x2 = 0.001759, x1 = 0.0002216): 0.0896 ± 0.0055 S/m
electrical conductivity (303.15 K, x2 = 0.001759, x1 = 0.0002442): 0.0946 ± 0.0058 S/m
electrical conductivity (303.15 K, x2 = 0.001759, x1 = 0.000265): 0.099 ± 0.0061 S/m
electrical conductivity (303.15 K, x2 = 0.001759, x1 = 0.000284): 0.103 ± 0.0063 S/m
electrical conductivity (303.15 K, x2 = 0.001759, x1 = 0.0003018): 0.107 ± 0.0066 S/m
electrical conductivity (303.15 K, x2 = 0.001759, x1 = 0.0003141): 0.11 ± 0.0068 S/m
electrical conductivity (308.15 K, x2 = 0.0008873, x1 = 0.0002851): 0.116 ± 0.0071 S/m
electrical conductivity (308.15 K, x2 = 0.0008873, x1 = 0.0003053): 0.12 ± 0.0074 S/m
electrical conductivity (308.15 K, x2 = 0.0008873, x1 = 0.0003201): 0.124 ± 0.0076 S/m
electrical conductivity (308.15 K, x2 = 0.0008874, x1 = 0.0001939): 0.0926 ± 0.0057 S/m
electrical conductivity (308.15 K, x2 = 0.0008874, x1 = 0.0002197): 0.0992 ± 0.0061 S/m
electrical conductivity (308.15 K, x2 = 0.0008874, x1 = 0.0002434): 0.105 ± 0.0064 S/m
electrical conductivity (308.15 K, x2 = 0.0008874, x1 = 0.0002654): 0.11 ± 0.0068 S/m
electrical conductivity (308.15 K, x2 = 0.0008875, x1 = 5.836e-05): 0.0319 ± 0.002 S/m
electrical conductivity (308.15 K, x2 = 0.0008875, x1 = 8.059e-05): 0.0433 ± 0.0027 S/m
electrical conductivity (308.15 K, x2 = 0.0008875, x1 = 0.0001014): 0.0538 ± 0.0033 S/m
electrical conductivity (308.15 K, x2 = 0.0008875, x1 = 0.0001212): 0.0639 ± 0.004 S/m
electrical conductivity (308.15 K, x2 = 0.0008875, x1 = 0.0001444): 0.0751 ± 0.0046 S/m
electrical conductivity (308.15 K, x2 = 0.0008875, x1 = 0.0001686): 0.085 ± 0.0052 S/m
electrical conductivity (308.15 K, x2 = 0.001759, x1 = 5.744e-05): 0.0319 ± 0.002 S/m
electrical conductivity (308.15 K, x2 = 0.001759, x1 = 7.9e-05): 0.0429 ± 0.0027 S/m
electrical conductivity (308.15 K, x2 = 0.001759, x1 = 9.947e-05): 0.0534 ± 0.0034 S/m
electrical conductivity (308.15 K, x2 = 0.001759, x1 = 0.0001207): 0.064 ± 0.0041 S/m
electrical conductivity (308.15 K, x2 = 0.001759, x1 = 0.0001453): 0.0758 ± 0.0047 S/m
electrical conductivity (308.15 K, x2 = 0.001759, x1 = 0.0001712): 0.0856 ± 0.0053 S/m
electrical conductivity (308.15 K, x2 = 0.001759, x1 = 0.0001971): 0.0931 ± 0.0057 S/m
electrical conductivity (308.15 K, x2 = 0.001759, x1 = 0.0002216): 0.0995 ± 0.0061 S/m
electrical conductivity (308.15 K, x2 = 0.001759, x1 = 0.0002442): 0.105 ± 0.0064 S/m
